≈ marks a conversion by molar mass, not a printed value.
What was measured:
Assay type in all cases: functional
Bacillus subtilis [1] = experiment: Antimicrobial activity against Bacillus subtilis ATCC 6633 incubated for 24 hrs by two-fold serial broth dilution method; conditions: ATCC 6633, 24 h
Bacillus subtilis [2] = experiment: Antimicrobial activity against Bacillus subtilis ATCC 6633 incubated at 37 degC for 24 hrs by cup diffusion method
PC-3 = experiment: Growth inhibition of human PC3 cells at 10 uM incubated for 48 hrs by sulforhodamine B assay; conditions: PC-3, 48 h, read-out: GI
Bacillus subtilis [3] = experiment: Antimicrobial activity against Bacillus subtilis ATCC 6633 incubated for 24 hrs followed by transfer of colonies to Muller-Hinton agar plate and measured after 18 hrs by two-fold serial broth dilution method
Candida albicans [4] = experiment: Antimicrobial activity against Candida albicans DSM 70014 incubated for 48 hrs followed by transfer of colonies to Muller-Hinton agar plate and measured after 18 hrs by two-fold serial broth dilution method
Escherichia coli [5] = experiment: Antimicrobial activity against Escherichia coli ATCC 11775 incubated at 37 degC for 24 hrs by cup diffusion method
NCI-H226 = experiment: Growth inhibition of human NCI-H226 cells at 10 uM incubated for 48 hrs by sulforhodamine B assay; conditions: NCI-H226, 48 h, read-out: GI
Escherichia coli [6] = experiment: Antimicrobial activity against Escherichia coli ATCC 11775 incubated for 24 hrs by two-fold serial broth dilution method; conditions: ATCC 11775, 24 h
Pseudomonas aeruginosa [7] = experiment: Antimicrobial activity against Pseudomonas aeruginosa ATCC 10145 incubated for 24 hrs followed by transfer of colonies to Muller-Hinton agar plate and measured after 18 hrs by two-fold serial broth dilution method
Staphylococcus aureus [8] = experiment: Antimicrobial activity against Staphylococcus aureus DSM 1104 incubated for 24 hrs by two-fold serial broth dilution method; conditions: DSM 1104, 24 h
Candida albicans [9] = experiment: Antimicrobial activity against Candida albicans DSM 70014 incubated at 37 degC for 48 hrs by cup diffusion method
A498 = experiment: Growth inhibition of human A498 cells at 10 uM incubated for 48 hrs by sulforhodamine B assay; conditions: A498, 48 h, read-out: GI
Pseudomonas aeruginosa [10] = experiment: Antimicrobial activity against Pseudomonas aeruginosa ATCC 10145 incubated at 37 degC for 24 hrs by cup diffusion method
Staphylococcus aureus [11] = experiment: Antimicrobial activity against Staphylococcus aureus DSM 1104 incubated at 37 degC for 24 hrs by cup diffusion method
UO-31 = experiment: Growth inhibition of human UO31 cells at 10 uM incubated for 48 hrs by sulforhodamine B assay; conditions: UO-31, 48 h, read-out: GI
Pseudomonas aeruginosa [12] = experiment: Antimicrobial activity against Pseudomonas aeruginosa ATCC 10145 incubated for 24 hrs by two-fold serial broth dilution method; conditions: ATCC 10145, 24 h
Escherichia coli [13] = experiment: Antimicrobial activity against Escherichia coli ATCC 11775 incubated for 24 hrs followed by transfer of colonies to Muller-Hinton agar plate and measured after 18 hrs by two-fold serial broth dilution method
SNB-75 = experiment: Growth inhibition of human SNB75 cells at 10 uM incubated for 48 hrs by sulforhodamine B assay; conditions: SNB-75, 48 h, read-out: GI
Candida albicans [14] = experiment: Antimicrobial activity against Candida albicans DSM 70014 incubated for 48 hrs by two-fold serial broth dilution method; conditions: DSM 70014, 48 h
Staphylococcus aureus [15] = experiment: Antimicrobial activity against Staphylococcus aureus DSM 1104 incubated for 24 hrs followed by transfer of colonies to Muller-Hinton agar plate and measured after 18 hrs by two-fold serial broth dilution method
[16] = Growth inhibition of human HOP92 cells at 10 uM incubated for 48 hrs by sulforhodamine B assay; conditions: HOP-92, 48 h, read-out: GI
[17] = Growth inhibition of human RXF393 cells at 10 uM incubated for 48 hrs by sulforhodamine B assay; conditions: RXF 393, 48 h, read-out: GI
A549 = experiment: Growth inhibition of human A549 cells at 10 uM incubated for 48 hrs by sulforhodamine B assay; conditions: A549, 48 h, read-out: GI
HCT-116 = experiment: Growth inhibition of human HCT116 cells at 10 uM incubated for 48 hrs by sulforhodamine B assay; conditions: HCT-116, 48 h, read-out: GI
NCI-H23 = experiment: Growth inhibition of human NCI-H23 cells at 10 uM incubated for 48 hrs by sulforhodamine B assay; conditions: NCI-H23, 48 h, read-out: GI
HCT-15 = experiment: Growth inhibition of human HCT15 cells at 10 uM incubated for 48 hrs by sulforhodamine B assay; conditions: HCT-15, 48 h, read-out: GI
HT-29 = experiment: Growth inhibition of human HT-29 cells at 10 uM incubated for 48 hrs by sulforhodamine B assay; conditions: HT-29, 48 h, read-out: GI
CAKI-1 = experiment: Growth inhibition of human Caki1 cells at 10 uM incubated for 48 hrs by sulforhodamine B assay; conditions: CAKI-1, 48 h, read-out: GI
MDA-MB-231 = experiment: Growth inhibition of human MDA-MB-231 cells at 10 uM incubated for 48 hrs by sulforhodamine B assay; conditions: MDA-MB-231, 48 h, read-out: GI
[18] = Growth inhibition of human EKVX cells at 10 uM incubated for 48 hrs by sulforhodamine B assay; conditions: read-out: GI
OVCAR-3 = experiment: Growth inhibition of human OVCAR3 cells at 10 uM incubated for 48 hrs by sulforhodamine B assay; conditions: OVCAR-3, 48 h, read-out: GI
NCI-H522 = experiment: Growth inhibition of human NCI-H522 cells at 10 uM incubated for 48 hrs by sulforhodamine B assay; conditions: NCI-H522, 48 h, read-out: GI
SF-268 = experiment: Growth inhibition of human SF268 cells at 10 uM incubated for 48 hrs by sulforhodamine B assay; conditions: SF-268, 48 h, read-out: GI
[19] = Growth inhibition of human NCI-ADR-RES cells at 10 uM incubated for 48 hrs by sulforhodamine B assay; conditions: read-out: GI

Row | Structure (SMILES) | MIC (Bacillus subtilis [1]) [µg/mL] | inhibition zone (IZ) (Bacillus subtilis [2]) [mm] | MBC (Bacillus subtilis [3]) [µg/mL] | MFC (Candida albicans [4]) [µg/mL] | inhibition zone (IZ) (Escherichia coli [5]) [mm] | MIC (Escherichia coli [6]) [µg/mL] | MBC (Pseudomonas aeruginosa [7]) [µg/mL] | MIC (Staphylococcus aureus [8]) [µg/mL] | inhibition zone (IZ) (Candida albicans [9]) [mm] | inhibition zone (IZ) (Pseudomonas aeruginosa [10]) [mm] | inhibition zone (IZ) (Staphylococcus aureus [11]) [mm] | inhibition of growth at 10 µM (UO-31) [%] | MIC (Pseudomonas aeruginosa [12]) [µg/mL] | MBC (Escherichia coli [13]) [µg/mL] | inhibition of growth at 10 µM (SNB-75) [%] | MIC (Candida albicans [14]) [µg/mL] | MBC (Staphylococcus aureus [15]) [µg/mL] | also measured
1 | c1ccc(Cc2nc3ccccc3n3cnnc23)cc1 | 50 (≈ 192 µM) | 12 | 50 (≈ 192 µM) | 200 (≈ 768 µM) | 12 | 25 (≈ 96 µM) | 100 (≈ 384 µM) | 50 (≈ 192 µM) | 17 | 14 | 17 | 22.7 | 50 (≈ 192 µM) | 25 (≈ 96 µM) | 23.5 | 100 (≈ 384 µM) | 100 (≈ 384 µM) | inhibition of growth at 10 µM (PC-3): 14.2%; inhibition of growth at 10 µM (NCI-H226): 15.5%; inhibition of growth at 10 µM (A498): 38.7%
2 | O=C(O)CCc1nnc2c(Cc3ccccc3)nc3ccccc3n12 | 12.5 (≈ 37.6 µM) | 12 | 25 (≈ 75.2 µM) | 100 (≈ 301 µM) | 15 | 12.5 (≈ 37.6 µM) | 25 (≈ 75.2 µM) | 25 (≈ 75.2 µM) | 16 | 12 | 13 | 12.2 | 25 (≈ 75.2 µM) | 25 (≈ 75.2 µM) | 17.7 | 50 (≈ 150 µM) | 50 (≈ 150 µM) | inhibition of growth at 10 µM [16]: 18.9%
3 | CC1(C)S[C@@H]2[C@H](NC(=O)[C@H](N)c3ccccc3)C(=O)N2[C@H]1C(=O)O [AMPICILLIN] | 12.5 (≈ 35.8 µM) | – | – | – | – | 10 (≈ 28.6 µM) | – | 5 (≈ 14.3 µM) | – | – | – | – | 50 (≈ 143 µM) | – | – | – | – | –
4 | CCOC(=O)c1nnc2c(Cc3ccccc3)nc3ccccc3n12 | 50 (≈ 150 µM) | 13 | 100 (≈ 301 µM) | 50 (≈ 150 µM) | 12 | 50 (≈ 150 µM) | 100 (≈ 301 µM) | 50 (≈ 150 µM) | 15 | 10 | 14 | 15.1 | 100 (≈ 301 µM) | 50 (≈ 150 µM) | 10.3 | 25 (≈ 75.2 µM) | 50 (≈ 150 µM) | –
5 | Clc1ccccc1C(c1ccccc1)(c1ccccc1)n1ccnc1 [CLOTRIMAZOLE] | – | – | – | – | – | – | – | – | – | – | – | – | – | – | – | 5 (≈ 14.5 µM) | – | –
6 | CCOC(=O)C/C(C)=N\Nc1nc2ccccc2nc1Cc1ccccc1 | 50 (≈ 138 µM) | 12 | 50 (≈ 138 µM) | 100 (≈ 276 µM) | 14 | 50 (≈ 138 µM) | 100 (≈ 276 µM) | 100 (≈ 276 µM) | 14 | 12 | 15 | 15.8 | 100 (≈ 276 µM) | 100 (≈ 276 µM) | – | 50 (≈ 138 µM) | 100 (≈ 276 µM) | inhibition of growth at 10 µM (A498): 17.8%
7 | Nc1cc(-c2ccc(Cl)cc2)nn1-c1nc2ccccc2nc1Cc1ccccc1 | 100 (≈ 243 µM) | 15 | 100 (≈ 243 µM) | 50 (≈ 121 µM) | 16 | 100 (≈ 243 µM) | 50 (≈ 121 µM) | 100 (≈ 243 µM) | 16 | 12 | 14 | – | 50 (≈ 121 µM) | 100 (≈ 243 µM) | 15.6 | 50 (≈ 121 µM) | 100 (≈ 243 µM) | inhibition of growth at 10 µM [17]: 21.3%; inhibition of growth at 10 µM (A549): 22%; inhibition of growth at 10 µM (HCT-116): 27.2%; inhibition of growth at 10 µM (NCI-H23): 18.5%; inhibition of growth at 10 µM (HCT-15): 25.6%; inhibition of growth at 10 µM (NCI-H226): 15.7%; inhibition of growth at 10 µM (HT-29): 30.3%; inhibition of growth at 10 µM (CAKI-1): 19.3%; inhibition of growth at 10 µM (MDA-MB-231): 24.9%; inhibition of growth at 10 µM [18]: 21.4%
8 | Brc1ccc(C2=NN=C3C(Cc4ccccc4)=Nc4ccccc4N3C2)cc1 | 50 (≈ 116 µM) | 12 | 50 (≈ 116 µM) | 50 (≈ 116 µM) | 14 | 50 (≈ 116 µM) | 100 (≈ 233 µM) | 50 (≈ 116 µM) | 14 | 12 | 12 | – | 100 (≈ 233 µM) | 50 (≈ 116 µM) | – | 50 (≈ 116 µM) | 50 (≈ 116 µM) | –
9 | O=[N+]([O-])c1ccc(-c2nnc3c(Cc4ccccc4)nc4ccccc4n23)cc1 | 100 (≈ 262 µM) | 12 | 100 (≈ 262 µM) | 50 (≈ 131 µM) | 14 | 100 (≈ 262 µM) | 50 (≈ 131 µM) | 50 (≈ 131 µM) | 15 | 12 | 14 | – | 50 (≈ 131 µM) | 100 (≈ 262 µM) | – | 25 (≈ 65.5 µM) | 100 (≈ 262 µM) | –
10 | O=c1[nH]nc2c(Cc3ccccc3)nc3ccccc3n12 | 100 (≈ 362 µM) | 16 | 200 (≈ 724 µM) | 100 (≈ 362 µM) | 10 | 100 (≈ 362 µM) | 100 (≈ 362 µM) | 100 (≈ 362 µM) | 14 | 12 | 16 | 35.5 | 100 (≈ 362 µM) | 100 (≈ 362 µM) | – | 50 (≈ 181 µM) | 200 (≈ 724 µM) | inhibition of growth at 10 µM (A498): 28.6%
11 | O=C(O)c1ccccc1-c1nnc2c(Cc3ccccc3)nc3ccccc3n12 | 100 (≈ 263 µM) | 16 | 100 (≈ 263 µM) | 50 (≈ 131 µM) | 15 | 25 (≈ 65.7 µM) | 100 (≈ 263 µM) | 100 (≈ 263 µM) | 14 | 12 | 14 | 18 | 100 (≈ 263 µM) | 50 (≈ 131 µM) | 24.4 | 25 (≈ 65.7 µM) | 200 (≈ 526 µM) | inhibition of growth at 10 µM (PC-3): 43.9%; inhibition of growth at 10 µM (OVCAR-3): 20.2%; inhibition of growth at 10 µM (NCI-H522): 14.6%; inhibition of growth at 10 µM (SF-268): 14.1%
12 | CCOC(=O)Cc1nnc2c(Cc3ccccc3)nc3ccccc3n12 | 100 (≈ 289 µM) | 14 | 100 (≈ 289 µM) | 25 (≈ 72.2 µM) | 15 | 100 (≈ 289 µM) | 100 (≈ 289 µM) | 50 (≈ 144 µM) | 12 | 14 | 14 | – | 100 (≈ 289 µM) | 100 (≈ 289 µM) | – | 25 (≈ 72.2 µM) | 100 (≈ 289 µM) | –
13 | Cc1nnc2c(Cc3ccccc3)nc3ccccc3n12 | 50 (≈ 182 µM) | 13 | 100 (≈ 365 µM) | 200 (≈ 729 µM) | 12 | 50 (≈ 182 µM) | 100 (≈ 365 µM) | 50 (≈ 182 µM) | 14 | 11 | 12 | – | 100 (≈ 365 µM) | 50 (≈ 182 µM) | 21.9 | 100 (≈ 365 µM) | 100 (≈ 365 µM) | inhibition of growth at 10 µM [19]: 12.6%; inhibition of growth at 10 µM (NCI-H226): 15.1%; inhibition of growth at 10 µM [16]: 17.6%
